According to patent US8460894B2, “Calcium-sensing receptor 2 (CaR2) and methods for using” (ABT Holding Company, priority 2002, dated 2013):
Values joined by “and” are separate entries in the source; they are usually repeats but may differ in a detail not shown here. Equal entries are not always repeated. “Also recorded” adds a separate entry of the source. Each block holds one compound with its values, some of them ahead of it.

What was measured:
CaR2 = biological target: T1, CaR2 (Homo sapiens, UniProt Q5T6X5, P91S); assay: FLIPR intracellular Ca^++ assay in HEK293 clone expressing CaR2 (HEK-167B12-2.1); assay type: cell-based; conditions: for FLIPR response / activation of CaR2 by ligand: initial ligand testing, ligand alone; for effect of Pb on activation of CaR2 by combined OC and Ca^++: OC and Ca^++ pre-incubated with / in the presence of Pb
T1 construct: molecular acquisition of the full-length cDNA led to the identification of the six coding exons; expressed in transfected cells
T1 sequence (Q5T6X5 19-926 P91S): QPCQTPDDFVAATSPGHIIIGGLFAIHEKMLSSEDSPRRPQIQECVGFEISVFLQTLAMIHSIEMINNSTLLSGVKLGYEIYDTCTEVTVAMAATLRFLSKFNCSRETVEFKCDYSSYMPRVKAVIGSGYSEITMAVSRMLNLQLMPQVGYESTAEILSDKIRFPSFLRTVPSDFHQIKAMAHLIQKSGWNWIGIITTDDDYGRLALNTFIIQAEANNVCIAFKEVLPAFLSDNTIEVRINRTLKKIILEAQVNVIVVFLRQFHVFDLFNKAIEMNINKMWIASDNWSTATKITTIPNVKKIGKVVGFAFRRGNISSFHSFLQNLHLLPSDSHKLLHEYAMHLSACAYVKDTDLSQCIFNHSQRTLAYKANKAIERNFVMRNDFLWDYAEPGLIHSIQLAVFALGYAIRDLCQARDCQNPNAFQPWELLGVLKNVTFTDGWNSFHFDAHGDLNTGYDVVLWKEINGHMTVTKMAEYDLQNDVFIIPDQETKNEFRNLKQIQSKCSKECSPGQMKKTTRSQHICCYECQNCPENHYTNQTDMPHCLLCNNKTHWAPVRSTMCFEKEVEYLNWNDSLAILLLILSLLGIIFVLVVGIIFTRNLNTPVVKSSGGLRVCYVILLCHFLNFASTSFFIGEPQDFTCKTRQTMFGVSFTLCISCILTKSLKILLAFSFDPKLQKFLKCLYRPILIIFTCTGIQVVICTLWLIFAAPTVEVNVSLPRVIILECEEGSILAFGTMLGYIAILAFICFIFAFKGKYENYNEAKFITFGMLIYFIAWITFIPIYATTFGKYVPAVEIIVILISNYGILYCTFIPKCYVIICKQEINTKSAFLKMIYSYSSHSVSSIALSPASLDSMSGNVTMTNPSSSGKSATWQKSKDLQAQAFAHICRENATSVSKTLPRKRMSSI
Method: To facilitate pharmacological experimentation, CaR2 cDNA was cloned into the mammalian expression vector pcDNA 3.1 (+) Neo with or without a COOH-terminal FLAG epitope. The transgene was introduced into the HEK293 cell line and stable transfectants were identified. These clones were analyzed for CaR2 expression by qPCR and Western blotting to identify those clones that were suitable for ligand identification.
Based on the homology to the characterized goldfish odorant receptor 5.24, initial studies investigated the ability of 18 naturally occurring amino acids to trigger changes of intracellular Ca^++ levels in the transfected cells, as measured with a fluorescent imaging plate reader (FLIPR).
(§1) Intracellular Ca^++ was measured using a fluorometric imaging plate reader (FLIPR) [Molecular Devices]. Cells were seeded at a density of 1×10^5/well (96-well plate) or 1×10^4/well (384-well plate) in collagen coated plates and incubated overnight at 36.9° C. with 5% CO2. Medium was aspirated from the plates and replaced with equal volumes of a no wash calcium dye (Molecular Devices) and modified Hank's buffered saline solution [Ca^2+-free, Mg^2+-free] (140 mM NaCl, 5.4 mM KCl, 0.64 mM KH2PO4, 3 mM NaHCO3, 5.5 mM C6H12O6, 20 mM HEPES, 2.5 mM Caprylic acid (or 2.5 mM probenecid)). The plates were incubated for 1 hour at 36.9° C. with 5% CO2. FLIPR was used to measure changes in intracellular calcium as relative fluorescence upon activation by ligand.

parental HEK293 cells = assay: FLIPR intracellular Ca^++ assay in parental HEK293 cells (no CaR2); assay type: cell-based
Method: as §1
(§2) Also, the apical side of cells lining tubules in Henle's loop in kidney and in epithelial cells lining prostate ducts are microenvironments where a higher than standard extracellular Ca^++ can be expected.
(§3) Having shown that high calcium levels activate CaR2, the effects of several agents known to modulate bone metabolism were determined.

CaR [1] = conditions: CaR in transfected HEK 293 cells; read-out: EC50 for Ca^++ at CaR; cited from earlier work
Saos-2 osteoblasts = assay: Osteoblast survival and proliferation in high mM Ca^++; assay type: cell-based
Source text: Saos-2 osteoblasts (ATCC-HTB-85) express CaR2 as determined by Western Blotting.

CaR [2] = assay: Activation of CaR in transfected HEK 293 cells; assay type: cell-based; conditions: HEK293 cells that express the previously characterized CaR
Method: as §1, §2, §3

Compound: [Ca+2] [Ca^++, calcium]
CaR2 activation by Ca^++ (CaR2; 10 mM Ca^++ (FIG. 4)): modest activation
CaR2 activation by Ca^++ (CaR2; 40 mM Ca^++ (FIG. 4)): robustly activated
EC50 (CaR2; HEK293 clone expressing CaR2, FLIPR): 85 mM
calcium level causing marked increase in fluorescence signal (intracellular Ca^++) (CaR2; clone expressing CaR2 (FIG. 2)): > 20 mM
FLIPR response / activation of CaR2 by ligand (CaR2): failed to elicit a positive FLIPR response
increase in fluorescence signal by high calcium levels (parental HEK293 cells; parental cell line, >20 mM calcium): not observed
EC50 (CaR [1]): 4.1 mM and 4 mM
growth of Saos-2 cells (Saos-2 osteoblasts; buffer containing 2 mM Ca^++): grew
proliferation and survival of Saos-2 cells (Saos-2 osteoblasts; medium containing 10 mM Ca^++): did not proliferate
proliferation and survival of Saos-2 cells (Saos-2 osteoblasts; medium containing 40 mM Ca^2+): survived and proliferated normally

intracellular Ca^++ in the CaR2 clone (CaR2; either ligand (BMP-2 or CT) added alone, absence of calcium): not seen
Compound: calcitonin [CT]

Compound: NCCCC(=O)O [GABA, reference compound]
FLIPR response / activation of CaR2 by ligand (CaR2): failed to elicit a positive FLIPR response

Compound: CN[C@H](CC(=O)O)C(=O)O [NMDA, reference compound]
FLIPR response / activation of CaR2 by ligand (CaR2): failed to elicit a positive FLIPR response

activation of CaR2 by OC (CaR2; in the absence of calcium): does not activate CaR2
Compound: OC: vitamin K-dependent bone calcium binding protein, 49 amino acids, synthesized by osteoblasts (YLYQWLGAPVPYPDPLEPRREVCELNPDCDELADHIGFQEAYRRFYGPV; UniProt P02818 52-100, looked up)
synergistic effect of OC and calcium on CaR2 (CaR2; OC and calcium added separately, not pre-incubated): not when both ligands are added separately
effect of OC on activation of CaR2 by Ca^++ (CaR2; OC pre-incubated with calcium): CaR2 was activated at lower calcium levels and the activation by high mM calcium was potentiated; also recorded: dose-dependent effect; also recorded: activates CaR2 when pre-incubated with 10 mM Ca^++ in a dose-dependent manner; also recorded: increases the sensitivity of CaR2 to Ca^++
effect of OC and Ca^++ (parental HEK293 cells; parental HEK293 cells that do not express CaR2): not observed
effect of OC and Ca^++ (CaR [2]): not observed

Compound: [Pb+2] [Pb^++, reference compound]
effect of Pb on activation of CaR2 by combined OC and Ca^++ (CaR2): blocked
effect of Pb on activation of CaR2 by combined OC and Ca^++ (CaR2; listed as Pb^2+): reversed
